# Measured values reported in US20250230165A1, “HETEROCYCLIC COMPOUNDS FOR USE IN THE TREATMENT OF CANCER” (ARTIOS PHARMA LIMITED, priority 2021, published 2025).
# Target: T1, Human Polθ polymerase domain (aa1820-2590) (Homo sapiens, UniProt O75417)
# T1 construct: Human Polθ polymerase domain (aa1820-2590) was expressed in E. coli; made in house; host or cells: E. coli
# T1 sequence (O75417 1820-2590): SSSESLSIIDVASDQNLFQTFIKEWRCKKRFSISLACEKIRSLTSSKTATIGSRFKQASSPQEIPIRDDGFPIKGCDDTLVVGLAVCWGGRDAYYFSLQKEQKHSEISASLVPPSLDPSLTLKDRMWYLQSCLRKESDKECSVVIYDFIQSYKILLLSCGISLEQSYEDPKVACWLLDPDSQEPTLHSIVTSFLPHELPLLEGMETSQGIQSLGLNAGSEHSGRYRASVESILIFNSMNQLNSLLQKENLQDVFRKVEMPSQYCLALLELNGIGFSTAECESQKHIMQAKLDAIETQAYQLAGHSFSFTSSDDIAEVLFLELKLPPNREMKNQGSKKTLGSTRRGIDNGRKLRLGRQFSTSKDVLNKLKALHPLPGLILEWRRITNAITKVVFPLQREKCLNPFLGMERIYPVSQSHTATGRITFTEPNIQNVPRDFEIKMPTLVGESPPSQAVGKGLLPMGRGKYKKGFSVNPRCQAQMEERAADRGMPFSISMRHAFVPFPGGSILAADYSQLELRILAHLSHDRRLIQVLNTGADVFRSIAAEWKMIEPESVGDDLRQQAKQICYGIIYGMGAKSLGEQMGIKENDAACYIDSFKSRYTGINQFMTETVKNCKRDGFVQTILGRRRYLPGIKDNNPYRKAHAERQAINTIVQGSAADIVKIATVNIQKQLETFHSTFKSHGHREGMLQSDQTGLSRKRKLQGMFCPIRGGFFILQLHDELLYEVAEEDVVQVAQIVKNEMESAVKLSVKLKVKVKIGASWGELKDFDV
# Experiment: Polθ Polymerase Domain Kinact/KI Assay (PicoGreen)
# Format: biochemical
# Conditions: 0.8 nM Polθ, 100 nM DNA substrate, kobs vs [I] fit for 2-step covalent inhibitor
# How it was run: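 Enzyme 0.8 nM, annealed DNA substrate 100 nM, […]; 25 mM Tris pH 7.5, 5% glycerol, 0.01% Triton X-100, 0.1 mg/ml BSA, 1 mM DTT, 1% DMSO. Quench with EDTA at timepoints to 60 min; PicoGreen read. kobs from time courses → Kinact/KI.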
row,Compound,Kinact/Kl
1,"C=CC(=O)N1Cc2ccc(CN3C[C@H]4CC(=O)N(c5cc(C(F)(F)F)cc(C)n5)[C@@H]4C(=O)N(C)c4cccc(Cl)c43)nc2C1CC#N (single isomer, unassigned) [Example 289a]",1.26e+06 M⁻¹ s⁻¹
2,"C=CC(=O)N1Cc2nc(CN3C[C@H]4CC(=O)N(c5cc(C(F)(F)F)cc(C)n5)[C@@H]4C(=O)N(C)c4cccc(Cl)c43)ccc2C1CC#N (single isomer, unassigned) [Example 290b]",1.3e+06 M⁻¹ s⁻¹
3,"C=CC(=O)N1Cc2ncc(CN3C[C@H]4CC(=O)N(c5cc(C(F)(F)F)cc(C)n5)[C@@H]4C(=O)N(C)c4cccc(Cl)c43)cc2C1CC#N (single isomer, unassigned) [Example 291a]",1.17e+06 M⁻¹ s⁻¹
4,"C=CC(=O)N1Cc2cc(CN3C[C@H]4CC(=O)N(c5cc(C(F)(F)F)cc(C)n5)[C@@H]4C(=O)N(C)c4cccc(Cl)c43)cnc2C1CC#N (single isomer, unassigned) [Example 292b]",2.52e+06 M⁻¹ s⁻¹
5,"C=CC(=O)N1Cc2nc(CN3C[C@H]4CC(=O)N(c5cc(C(F)(F)F)cc(C)n5)[C@@H]4C(=O)N(C)c4cccc(Cl)c43)cn2CC1C(F)(F)F (single isomer, unassigned) [Example 293b]",1.28e+06 M⁻¹ s⁻¹
6,"C=CC(=O)N1Cc2cc(CN3C[C@H]4CC(=O)N(c5cc(C(F)(F)F)cc(C)n5)[C@@H]4C(=O)N(C)c4cccc(Cl)c43)nn2CC1C (single isomer, unassigned) [Example 294a]",1.61e+06 M⁻¹ s⁻¹
7,"C=CC(=O)N1CC(N2CCN(CCN3C[C@H]4CC(=O)N(c5cc(C(F)(F)F)cc(C)n5)[C@@H]4C(=O)N(C)c4cccc(F)c43)CC2)C1 [Example 1, (3aR,11aS)-5-(2-(4-(1-Acryloylazetidin-3-yl)piperazin-1-yl)ethyl)-6-fluoro-10-methyl-1-(6-methyl-4-(trifluoromethyl)pyridin-2-yl)-1,3a,4,5,10,11a-hexahydro-2H-benzo[b]pyrrolo[2,3-f][1,4]diazocine-2,11(3H)-dione]",410000 M⁻¹ s⁻¹
8,"C=CC(=O)N1CC2(CN(CCN3C[C@H]4CC(=O)N(c5cc(C(F)(F)F)cc(C)n5)[C@@H]4C(=O)N(C)c4cccc(F)c43)C[C@H]3CCCN32)C1 [Example 2, (3aR,11aS)-5-(2-((R)-1-Acryloyltetrahydro-1′H-spiro[azetidine-3,4′-pyrrolo[1,2-a]pyrazin]-2′(3′H)-yl)ethyl)-6-fluoro-10-methyl-1-(6-methyl-4-(trifluoromethyl)pyridin-2-yl)-1,3a,4,5,10,11a-hexahydro-2H-benzo[b]pyrrolo[2,3-f][1,4]diazocine-2,11(3H)-dione]",670000 M⁻¹ s⁻¹
9,"C=CC(=O)N1CC(N2CCCN(CCN3C[C@H]4CC(=O)N(c5cc(C(F)(F)F)cc(C)n5)[C@@H]4C(=O)N(C)c4cccc(F)c43)CC2)C1 [Example 3, (3aR,11aS)-5-(2-(4-(1-Acryloylazetidin-3-yl)-1,4-diazepan-1-yl)ethyl)-6-fluoro-10-methyl-1-(6-methyl-4-(trifluoromethyl)pyridin-2-yl)-1,3a,4,5,10,11a-hexahydro-2H-benzo[b]pyrrolo[2,3-f][1,4]diazocine-2,11(3H)-dione]",540000 M⁻¹ s⁻¹
10,"C=CC(=O)N1CC2(CN(CCN3C[C@H]4CC(=O)N(c5cc(C(F)(F)F)cc(C)n5)[C@@H]4C(=O)N(C)c4cccc(F)c43)CCO2)C1 [Example 4, (3aR,11aS)-5-(2-(2-acryloyl-5-oxa-2,8-diazaspiro[3.5]nonan-8-yl)ethyl)-6-fluoro-10-methyl-1-(6-methyl-4-(trifluoromethyl)pyridin-2-yl)-1,3a,4,5,10,11a-hexahydro-2H-benzo[b]pyrrolo[2,3-f][1,4]diazocine-2,11(3H)-dione]",750000 M⁻¹ s⁻¹
11,"C=CC(=O)N1CC2CN(CCN3C[C@H]4CC(=O)N(c5cc(C(F)(F)F)cc(C)n5)[C@@H]4C(=O)N(C)c4cccc(F)c43)CC(C1)O2 [Example 5, (3aR,11aS)-5-(2-(7-acryloyl-9-oxa-3,7-diazabicyclo[3.3.1]nonan-3-yl)ethyl)-6-fluoro-10-methyl-1-(6-methyl-4-(trifluoromethyl)pyridin-2-yl)-1,3a,4,5,10,11a-hexahydro-2H-benzo[b]pyrrolo[2,3-f][1,4]diazocine-2,11(3H)-dione]",140000 M⁻¹ s⁻¹
12,"C=CC(=O)N1CC2(CN(CCN3C[C@H]4CC(=O)N(c5cc(C(F)(F)F)cc(C)n5)[C@@H]4C(=O)N(C)c4cccc(F)c43)C[C@@H](COC)N2)C1 [Example 6, (3aR,11aS)-5-(2-((S)-2-acryloyl-6-(methoxymethyl)-2,5,8-triazaspiro[3.5]nonan-8-yl)ethyl)-6-fluoro-10-methyl-1-(6-methyl-4-(trifluoromethyl)pyridin-2-yl)-1,3a,4,5,10,11a-hexahydro-2H-benzo[b]pyrrolo[2,3-f][1,4]diazocine-2,11(3H)-dione]",540000 M⁻¹ s⁻¹
13,"C=CC(=O)N1CC(N2CCN(CCN3C[C@H]4CC(=O)N(c5cc(C(F)(F)F)cc(C)n5)[C@@H]4C(=O)N(C)c4cccc(Cl)c43)CC2)C1 [Example 12, (3aR,11aS)-5-(2-(4-(1-acryloylazetidin-3-yl)piperazin-1-yl)ethyl)-6-chloro-10-methyl-1-(6-methyl-4-(trifluoromethyl)pyridin-2-yl)-1,3a,4,5,10,11a-hexahydro-2H-benzo[b]pyrrolo[2,3-f][1,4]diazocine-2,11(3H)-dione]",1.71e+06 M⁻¹ s⁻¹
14,"C=CC(=O)N1CC2(CN(CCN3C[C@H]4CC(=O)N(c5cc(C(F)(F)F)cc(C)n5)[C@@H]4C(=O)N(C)c4cccc(Cl)c43)C[C@@H](C)N2)C1 [Example 13, (3aR,11aS)-5-(2-((R)-2-acryloyl-6-methyl-2,5,8-triazaspiro[3.5]nonan-8-yl)ethyl)-6-chloro-10-methyl-1-(6-methyl-4-(trifluoromethyl)pyridin-2-yl)-1,3a,4,5,10,11a-hexahydro-2H-benzo[b]pyrrolo[2,3-f][1,4]diazocine-2,11(3H)-dione]",1.26e+06 M⁻¹ s⁻¹
15,"C=CC(=O)N1CCN2CCN(CCN3C[C@H]4CC(=O)N(c5cc(C(F)(F)F)cc(C)n5)[C@@H]4C(=O)N(C)c4cccc(Cl)c43)CC2C1 (stereo partly drawn) [Example 14, (3aR,11aS)-5-(2-(8-acryloyloctahydro-2H-pyrazino[1,2-a]pyrazin-2-yl)ethyl)-6-chloro-10-methyl-1-(6-methyl-4-(trifluoromethyl)pyridin-2-yl)-1,3a,4,5,10,11a-hexahydro-2H-benzo[b]pyrrolo[2,3-f][1,4]diazocine-2,11(3H)-dione]",2.05e+06 M⁻¹ s⁻¹

# Further lines, results first:
row,Kinact/Kl,Compound
1,1.46e+06 M⁻¹ s⁻¹,"Cc1cc(C(F)(F)F)cc(N2C(=O)C[C@@H]3CN(Cc4ccc5c(c4)CN(C(=O)/C=C/CN(C)C)C5CC#N)c4c(Cl)cccc4N(C)C(=O)[C@H]32)n1 (single isomer, unassigned) [Example 310b]"
2,1.12e+06 M⁻¹ s⁻¹,"Cc1cc(C(F)(F)F)cc(N2C(=O)C[C@@H]3CN(Cc4ccc5c(c4)C(CC#N)N(C(=O)/C=C/CN(C)C)C5)c4c(Cl)cccc4N(C)C(=O)[C@H]32)n1 (single isomer, unassigned) [Example 311a]"
3,1.25e+06 M⁻¹ s⁻¹,"C=CC(=O)N1C[C@H](F)[C@@H](n2cc(CN3C[C@H]4CC(=O)N(c5cc(C(F)(F)F)cc(C)n5)[C@@H]4C(=O)N(C)c4cccc(C)c43)cn2)C1 (single isomer, unassigned) [Example 325a]"
4,870000 M⁻¹ s⁻¹,"C=CC(=O)N1C[C@@H](F)[C@H](n2cc(CN3C[C@H]4CC(=O)N(c5cc(C(F)(F)F)cc(C)n5)[C@@H]4C(=O)N(C)c4cccc(C)c43)cn2)C1 (single isomer, unassigned) [Example 325b]"
5,980000 M⁻¹ s⁻¹,"C=CC(=O)N1C[C@@H](n2cc(CN3C[C@H]4CC(=O)N(c5cc(C(F)(F)F)cc(C)n5)[C@@H]4C(=O)N(C)c4cccc(C)c43)cn2)[C@@H](F)C1 (single isomer, unassigned) [Example 325c]"
6,1.77e+06 M⁻¹ s⁻¹,"C=CC(=O)N1C[C@@H](F)[C@@H](n2cc(CN3C[C@H]4CC(=O)N(c5cc(C(F)(F)F)cc(C)n5)[C@@H]4C(=O)N(C)c4cccc(C)c43)cn2)C1 (single isomer, unassigned) [Example 325d]"
7,450000 M⁻¹ s⁻¹,"C=CC(=O)N1C[C@@H](F)[C@@H](n2cnc(CN3C[C@H]4CC(=O)N(c5cc(C(F)(F)F)cc(C)n5)[C@@H]4C(=O)N(C)c4cccc(C)c43)c2)C1 (single isomer, unassigned) [Example 326a]"
8,1.52e+06 M⁻¹ s⁻¹,"C=CC(=O)N1C[C@@H](n2cnc(CN3C[C@H]4CC(=O)N(c5cc(C(F)(F)F)cc(C)n5)[C@@H]4C(=O)N(C)c4cccc(C)c43)c2)[C@@H](F)C1 (single isomer, unassigned) [Example 326b]"
